Tests used:
Experiment in all cases: relative viability (nuclei count vs DMSO), 5 days (fraction); higher = more cells survive
[1] = compound: CC1CC(=O)N(C2=CN=C(N=C2N1C3CCCC3)NC4=C(C=C(C=C4)C(=O)NC5CCN(CC5)C)OC)C [NPK76-II-72-1] + CC(C)C[C@H](NC(=O)[C@H](Cc1ccccc1)NC(=O)c1cnccn1)B(O)O [Bortezomib] (partner 0.002 µM)
Procedure, shortened: (§1)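 Each reported value is a median over duplicate plates. It expresses relative viability: treated-well nuclei count divided by vehicle-well nuclei count. Lung cancer cell lines in 1536-well plates were dosed by pin tool a day after seeding, alone with one drug or with a fixed anchor-drug dose plus five library-drug doses (not always all listed) in √10 steps, and nuclei were counted after 5 days.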

[2] = compound: CC1CC(=O)N(C2=CN=C(N=C2N1C3CCCC3)NC4=C(C=C(C=C4)C(=O)NC5CCN(CC5)C)OC)C [NPK76-II-72-1] + C[C@]1(O)C[C@@H](c2nc(-c3ccc4ccc(-c5ccccc5)nc4c3)c3c(N)nccn32)C1 [Linsitinib] (partner 1 µM)
Procedure, shortened: as §1

[3] = compound: CC[C@@H]1C(=O)N(C)c2cnc(Nc3ccc(C(=O)NC4CCN(C)CC4)cc3OC)nc2N1C1CCCC1 [BI-2536] + CC(=O)c1c(C)c2cnc(Nc3ccc(N4CCNCC4)cn3)nc2n(C2CCCC2)c1=O [Palbociclib] (partner 0.5 µM)
Procedure, shortened: as §1

[4] = compound: CC[C@@H]1C(=O)N(C)c2cnc(Nc3ccc(C(=O)NC4CCN(C)CC4)cc3OC)nc2N1C1CCCC1 [BI-2536] + Cc1nc(Nc2ncc(C(=O)Nc3c(C)cccc3Cl)s2)cc(N2CCN(CCO)CC2)n1 [Dasatinib] (partner 0.075 µM)
Procedure, shortened: as §1

Cell Line	relative viability ([1]; first compound 0.01 µM)	relative viability ([1]; first compound 0.03162 µM)	relative viability ([1]; first compound 0.1 µM)	relative viability ([1]; first compound 0.3162 µM)	relative viability ([1]; first compound 1 µM)	relative viability ([2]; first compound 0.01 µM)	relative viability ([2]; first compound 0.03162 µM)	relative viability ([2]; first compound 0.1 µM)	relative viability ([2]; first compound 0.3162 µM)	relative viability ([2]; first compound 1 µM)	relative viability ([3]; first compound 0.01 µM)	relative viability ([3]; first compound 0.03162 µM)	relative viability ([3]; first compound 0.1 µM)	relative viability ([3]; first compound 0.3162 µM)	relative viability ([3]; first compound 1 µM)	relative viability ([4]; first compound 0.01 µM)	relative viability ([4]; first compound 0.03162 µM)	relative viability ([4]; first compound 0.1 µM)	relative viability ([4]; first compound 0.3162 µM)	relative viability ([4]; first compound 1 µM)
201T	1.07	1.14	1.08	1.17	1.1	1.01	0.969	1.06	1.06	1.09	0.367	0.344	0.347	0.314	0.287	0.579	0.57	0.547	0.402	0.285
A549	–	–	–	–	–	0.516	0.651	0.538	0.417	0.54	–	–	–	–	–	–	–	–	–	–
A-427	0.935	0.977	1.06	0.932	1.02	1.1	1.09	1.15	1.14	1.13	0.519	0.498	0.453	0.219	0.203	0.579	0.752	0.44	0.12	0.118
ABC-1	0.272	0.306	0.299	0.254	0.358	0.599	0.558	0.861	0.703	0.767	0.561	0.629	0.374	0.358	0.423	0.519	0.634	0.211	0.31	0.231
BEN	0.773	0.659	0.763	0.466	0.875	0.946	1.01	0.87	0.881	0.879	0.481	0.506	0.455	0.401	0.366	0.34	0.367	0.248	0.184	0.199
CAL-12T	0.874	0.832	0.872	–	1.01	0.721	1.07	0.737	0.736	0.808	0.431	0.351	0.249	0.127	0.132	0.387	0.287	0.0978	0.121	0.0997
COR-L23	0.942	1	0.889	0.961	0.99	0.869	0.918	0.898	0.908	1.04	0.298	0.242	0.139	0.117	0.127	0.459	0.491	0.117	0.107	0.0593
COR-L 105	0.699	0.982	0.848	0.672	1.12	1.01	0.936	1.09	0.738	1.13	0.422	0.392	0.353	0.297	0.351	0.359	0.312	0.212	0.197	0.148
Calu-6	0.992	1.03	1.16	0.894	1.06	0.981	0.912	0.897	0.948	0.946	–	–	–	–	–	–	–	–	–	–
ChaGo-K-1	0.988	0.945	0.994	0.744	1.01	–	–	–	–	–	0.908	0.845	0.785	0.187	0.188	0.594	0.667	0.446	0.194	0.197
EBC-1	0.543	0.63	0.608	0.562	0.713	0.853	0.858	0.886	0.922	1.13	–	–	–	–	–	–	–	–	–	–
EKVX	1.01	0.998	1.03	0.637	1.04	0.935	1.07	0.985	0.764	1.18	0.416	0.404	0.37	0.182	0.173	0.742	0.653	0.586	0.399	0.174
EMC-BAC-2	1.06	1.15	0.951	1.01	1.12	0.814	0.848	0.848	0.747	0.793	0.514	0.502	0.455	0.257	0.297	0.3	0.304	0.209	0.15	0.14
EPLC-272H	0.984	0.916	0.773	0.829	0.975	0.973	1.15	1.28	1.05	1.18	0.293	0.315	0.234	0.168	0.152	0.327	0.357	0.0724	0.0766	0.0856
H3255	0.841	0.642	0.647	–	1.11	0.973	0.994	0.915	0.677	1.14	0.341	0.299	0.314	0.248	0.259	0.315	0.237	0.235	0.27	0.25
HARA	1.08	1.2	1.04	1.12	1.22	1.03	0.921	0.929	0.77	1.03	0.265	0.346	0.295	0.151	0.136	0.265	0.287	0.328	0.058	0.0777
HCC-15	0.995	1.11	1.05	1.02	1.02	0.85	0.911	0.952	0.826	0.953	0.704	0.66	0.547	0.17	0.144	0.557	0.417	0.192	0.112	0.102
HCC-44	0.836	0.877	0.87	0.843	1.03	0.634	0.701	0.635	0.681	0.716	1.05	0.959	0.947	0.404	0.312	–	–	–	–	–
HCC-78	0.532	0.565	0.398	0.52	0.998	–	0.529	0.487	–	0.516	0.566	0.475	0.431	0.436	0.318	0.454	0.374	0.416	0.25	0.17
HCC-366	0.952	1.1	1.03	0.94	0.99	0.54	0.688	0.704	0.707	0.777	0.364	0.389	0.225	0.0306	0.0265	0.717	0.653	0.149	0.0225	0.0238
HCC-827	0.975	1.11	1.05	0.956	1.29	0.891	0.91	0.939	0.855	1.01	0.467	0.435	0.467	0.267	0.186	0.293	0.315	0.334	0.301	0.177

Cell Line	relative viability ([1]; first compound 0.01 µM)	relative viability ([1]; first compound 0.03162 µM)	relative viability ([1]; first compound 0.1 µM)	relative viability ([1]; first compound 0.3162 µM)	relative viability ([1]; first compound 1 µM)	relative viability ([2]; first compound 0.01 µM)	relative viability ([2]; first compound 0.03162 µM)	relative viability ([2]; first compound 0.1 µM)	relative viability ([2]; first compound 0.3162 µM)	relative viability ([2]; first compound 1 µM)	relative viability ([3]; first compound 0.01 µM)	relative viability ([3]; first compound 0.03162 µM)	relative viability ([3]; first compound 0.1 µM)	relative viability ([3]; first compound 0.3162 µM)	relative viability ([3]; first compound 1 µM)	relative viability ([4]; first compound 0.01 µM)	relative viability ([4]; first compound 0.03162 µM)	relative viability ([4]; first compound 0.1 µM)	relative viability ([4]; first compound 0.3162 µM)	relative viability ([4]; first compound 1 µM)
HOP-62	0.743	0.754	0.433	0.916	0.824	0.908	1.05	0.922	1.05	0.89	0.421	0.409	0.443	0.17	0.143	0.618	0.665	0.515	0.173	0.167
IA-LM	0.738	0.798	0.871	0.933	0.857	0.582	0.684	0.435	0.597	0.809	–	–	–	–	–	–	–	–	–	–
LC-2-ad	0.981	1.04	0.926	1.01	1.07	0.78	0.767	0.854	0.801	0.834	0.526	0.379	0.361	0.234	0.248	0.563	0.333	0.135	0.197	0.147
LK-2	–	–	–	–	–	0.543	0.69	0.729	0.415	0.743	0.586	0.525	0.464	0.15	0.106	0.268	0.313	0.215	0.147	0.137
NCI-H358	–	–	–	–	–	0.742	0.773	0.854	0.412	0.784	0.132	0.133	0.104	0.0605	0.0928	0.157	0.171	0.0774	0.0602	0.0816
NCI-H522	–	–	–	–	–	–	–	–	–	–	1	0.922	1.13	0.4	0.303	0.687	0.989	0.607	0.341	0.334
NCI-H596	0.838	–	0.999	1	0.966	1.02	1.14	1.06	1.13	1.09	–	–	–	–	–	0.574	0.673	0.449	0.25	0.273
NCI-H1299	0.994	1.07	1.02	1.02	1	0.999	0.96	1.01	0.98	1.03	–	–	–	–	–	–	–	–	–	–
NCI-H1395	–	–	–	–	–	1.08	1.17	1.22	1.13	1.22	0.574	0.516	0.339	0.347	0.375	0.413	0.398	0.315	0.297	0.328
NCI-H1563	0.883	0.861	0.712	0.883	0.879	1.07	1.29	1.11	1.16	1.2	–	–	–	–	–	0.47	0.498	0.449	0.361	0.331
NCI-H1623	–	–	–	–	–	–	–	–	–	–	–	–	–	–	–	0.485	0.519	0.571	0.595	0.281
NCI-H1648	–	–	–	–	–	–	–	–	–	–	0.288	0.131	0.251	0.229	0.29	–	–	–	–	–
NCI-H1650	0.211	0.191	0.183	0.218	0.211	–	–	–	–	–	0.382	0.282	0.188	0.129	0.145	0.341	0.321	0.18	0.159	0.12
NCI-H1703	0.255	0.316	0.323	0.318	0.348	0.428	0.65	0.621	0.645	0.996	–	–	–	–	–	–	–	–	–	–
NCI-H1793	–	–	–	–	–	0.771	0.962	0.971	0.495	0.742	0.328	0.34	0.276	0.168	0.154	0.401	0.356	0.129	0.113	0.163
NCI-H1944	–	–	–	–	–	1.16	1.09	1.21	1.06	1.28	0.304	0.329	0.308	0.173	0.15	0.218	0.232	0.177	0.126	0.132
NCI-H2170	–	–	–	–	–	–	–	–	–	–	0.379	0.437	0.363	0.155	0.16	0.626	0.597	0.356	0.16	0.179
NCI-H2342	–	–	–	–	–	–	–	–	–	–	–	0.553	0.542	0.394	0.397	0.326	0.313	0.267	0.213	0.227
SK-MES-1	–	–	–	–	–	1.05	1.07	0.994	0.995	1.15	0.345	0.301	0.187	0.222	0.208	0.415	0.336	0.134	0.115	0.136
SW 900	–	–	–	–	–	–	–	–	–	–	0.549	0.487	0.471	0.313	0.219	0.629	0.596	0.391	0.181	0.139

— the supplement of paper PMC10307832
